In US20130178475A1, “sGC STIMULATORS” (IRONWOOD PHARMACEUTICALS, INC., priority 2010, published 2013):

Target: T1, soluble guanylate cyclase (sGC) (Homo sapiens, UniProt Q02108+Q02153)
T1 construct: endogenously expressing soluble guanylate cyclase (sGC); endogenous in cells; host or cells: HEK293
T1 sequence (Q02153 1-619): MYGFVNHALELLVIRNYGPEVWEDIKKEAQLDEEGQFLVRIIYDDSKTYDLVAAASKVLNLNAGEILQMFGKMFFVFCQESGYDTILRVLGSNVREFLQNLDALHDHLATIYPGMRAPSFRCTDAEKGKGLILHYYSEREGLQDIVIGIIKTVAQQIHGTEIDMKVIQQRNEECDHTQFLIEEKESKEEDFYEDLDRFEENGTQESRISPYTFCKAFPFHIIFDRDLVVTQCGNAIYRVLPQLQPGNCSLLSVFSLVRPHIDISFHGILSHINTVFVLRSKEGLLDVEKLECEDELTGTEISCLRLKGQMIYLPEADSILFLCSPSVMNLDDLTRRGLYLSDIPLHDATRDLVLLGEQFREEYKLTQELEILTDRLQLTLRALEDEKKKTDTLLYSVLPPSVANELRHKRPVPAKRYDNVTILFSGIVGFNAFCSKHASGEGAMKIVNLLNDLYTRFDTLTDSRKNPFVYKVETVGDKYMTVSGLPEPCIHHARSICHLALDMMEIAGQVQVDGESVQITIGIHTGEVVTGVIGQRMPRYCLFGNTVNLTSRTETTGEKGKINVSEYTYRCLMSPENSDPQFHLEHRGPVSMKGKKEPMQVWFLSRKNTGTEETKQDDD
T1 sequence (Q02108 1-690): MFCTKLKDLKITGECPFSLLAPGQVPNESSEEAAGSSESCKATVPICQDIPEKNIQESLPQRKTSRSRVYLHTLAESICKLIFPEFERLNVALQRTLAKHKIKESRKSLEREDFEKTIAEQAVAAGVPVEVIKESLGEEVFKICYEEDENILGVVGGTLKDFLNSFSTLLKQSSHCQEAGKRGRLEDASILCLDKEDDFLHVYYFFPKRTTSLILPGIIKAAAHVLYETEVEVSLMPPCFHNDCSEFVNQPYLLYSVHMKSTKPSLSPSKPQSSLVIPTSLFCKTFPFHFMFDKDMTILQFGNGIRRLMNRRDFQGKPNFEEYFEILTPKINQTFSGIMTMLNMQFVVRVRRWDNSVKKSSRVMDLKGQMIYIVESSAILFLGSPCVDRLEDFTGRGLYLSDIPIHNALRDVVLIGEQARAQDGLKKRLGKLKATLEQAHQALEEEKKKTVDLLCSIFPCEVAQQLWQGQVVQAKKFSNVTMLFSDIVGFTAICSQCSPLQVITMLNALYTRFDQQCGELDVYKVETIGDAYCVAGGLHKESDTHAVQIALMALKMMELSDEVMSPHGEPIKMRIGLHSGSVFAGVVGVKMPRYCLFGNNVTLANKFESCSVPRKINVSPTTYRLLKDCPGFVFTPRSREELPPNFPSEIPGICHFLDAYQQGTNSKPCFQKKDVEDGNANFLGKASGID
Assay: sGC-HEK-cGMP assay
Format: cell-based
Conditions: HEK293 cells, 10 min incubation, intracellular cGMP by LC/MS; for Increase in cGMP Concentration Tested at 10 μM in HEK Assay: test compound 10 μM; for Increase in cGMP Concentration Tested at 30 μM in HEK Assay: test compound 30 μM
Experimental: Human embryonic kidney cells (HEK293), endogenously expressing soluble guanylate cyclase (sGC), were used to evaluate the activity of test compounds. Compounds stimulating the sGC receptor should cause an increase in the intracellular concentration of cGMP. […] Cells were then incubated for 15 minutes at 37° C. with 0.5 mM 3-isobutyl-1-methylxanthine (2004). Test article was then added to the assay mixture (2 μL) and incubated at 37° C. for 10 minutes. After the 10 minute incubation, the assay mixture was aspirated and 0.1M HCl (2004) was added to the cells. The plate was incubated at 4° C. for 30 minutes in the 0.1M HCl to stop the reaction and lyse the cells. The plates were then centrifuged at 1,200 g for 5 minutes at room temperature. Supernatants were collected and transferred to a new flat bottom 96 well plate for analysis. Vehicle controls were carried out using DMSO (1%). A known sGC stimulator, BAY 41-2272, was used as the positive control.
Samples were diluted with an equal volume of 1 M Ammonium Acetate (pH 7) to neutralize samples for better chromatography. A 2×cGMP standard curve was prepared in 0.1 M HCl and then diluted with an equal volume of 1 M Ammonium Acetate, with the following final concentrations in nM: 1024, 512, 256, 128, 64, 32, 16, 8, 4, 2, 1.
cGMP concentrations were determined from each sample using the LC/MS conditions (Table 2 below) and calculated standard curve. EC50 values were calculated from concentration-response curves generated with GraphPad Prism Software.

SMILES | Increase in cGMP Concentration Tested at 10 μM in HEK Assay | Increase in cGMP Concentration Tested at 30 μM in HEK Assay
Nc1nc(-c2nn(Cc3ccccc3F)c3c2CCC3)nc(N)c1N [Compound I-35] | A (A represents no increase or an increase ranging from more than 0 fold to less than 5 fold) | A (A represents no increase or an increase ranging from more than 0 fold to less than 5 fold)
COC(=O)Nc1c(N)nc(-c2nn(Cc3ccccc3F)c3c2CCC3)nc1N [Compound I-36] | C (C represents an increase ranging from 10 fold to less than 20 fold) | B (B represents an increase ranging from 5 fold to less than 10 fold)
O=S1(=O)CCc2c(c(-c3ncccn3)nn2Cc2ccccc2F)C1 [Compound I-19] | A (A represents no increase or an increase ranging from more than 0 fold to less than 5 fold) | A (A represents no increase or an increase ranging from more than 0 fold to less than 5 fold)
COC(=O)Nc1c(N)nc(-c2nn(Cc3ccccc3F)c3c2CCCC3)nc1N [Compound I-13] | A (A represents no increase or an increase ranging from more than 0 fold to less than 5 fold) | A (A represents no increase or an increase ranging from more than 0 fold to less than 5 fold)
Fc1ccccc1Cn1nc(-c2ccncc2)c2c1CCCC2 [Compound I-49, 1-(2-fluorobenzyl)-3-(pyridin-4-yl)-4,5,6,7-tetrahydro-1H-indazole] | A (A represents no increase or an increase ranging from more than 0 fold to less than 5 fold) | A (A represents no increase or an increase ranging from more than 0 fold to less than 5 fold)
Fc1ccc(Cn2nc(-c3ncccn3)c3c2CCCC3)cc1 [Compound I-6] | A (A represents no increase or an increase ranging from more than 0 fold to less than 5 fold) | A (A represents no increase or an increase ranging from more than 0 fold to less than 5 fold)
COc1cccc(Cn2nc(-c3ncccn3)c3c2CCCC3)c1 [Compound I-5] | B (B represents an increase ranging from 5 fold to less than 10 fold) | C (C represents an increase ranging from 10 fold to less than 20 fold)
CS(=O)(=O)N1CCc2c(c(-c3ncccn3)nn2Cc2ccccc2F)C1 [Compound I-51, 1-(2-fluorobenzyl)-5-(methylsulfonyl)-3-(pyrimidin-2-yl)-4,5,6,7-tetrahydro-1H-pyrazolo[4,3-c]pyridine] | A (A represents no increase or an increase ranging from more than 0 fold to less than 5 fold) | A (A represents no increase or an increase ranging from more than 0 fold to less than 5 fold)
Fc1ccccc1Cn1nc(-c2ncccn2)c2c1CCC(F)(F)C2 [Compound I-30] | A (A represents no increase or an increase ranging from more than 0 fold to less than 5 fold) | A (A represents no increase or an increase ranging from more than 0 fold to less than 5 fold)
Nc1nc(-c2nn(Cc3ccccc3F)c3c2CCCC3)nc(N)c1N [Compound I-12] | A (A represents no increase or an increase ranging from more than 0 fold to less than 5 fold) | A (A represents no increase or an increase ranging from more than 0 fold to less than 5 fold)
O=C1CCCc2c1c(-c1ncccn1)nn2Cc1ccccc1F [Compound I-21] | A (A represents no increase or an increase ranging from more than 0 fold to less than 5 fold) | A (A represents no increase or an increase ranging from more than 0 fold to less than 5 fold)
CC(=O)N1CCc2c(c(-c3ncccn3)nn2Cc2ccccc2F)C1 [Compound I-52, 1-(1-(2-fluorobenzyl)-3-(pyrimidin-2-yl)-6,7-dihydro-1H-pyrazolo[4,3-c]pyridin-5(4H)-yl)ethanone] | A (A represents no increase or an increase ranging from more than 0 fold to less than 5 fold) | A (A represents no increase or an increase ranging from more than 0 fold to less than 5 fold)
O=C(c1cccnc1)N1CCc2c(c(-c3ncccn3)nn2Cc2ccccc2F)C1 [Compound I-54] | A (A represents no increase or an increase ranging from more than 0 fold to less than 5 fold) | A (A represents no increase or an increase ranging from more than 0 fold to less than 5 fold)
Nc1nc(-c2nn(Cc3ccccc3F)c3c2CCCC3)nc(N)c1N1CCOC1=O [Compound I-26] | A (A represents no increase or an increase ranging from more than 0 fold to less than 5 fold) | B (B represents an increase ranging from 5 fold to less than 10 fold)
COC(=O)N(Cc1ccccc1F)c1c(N)nc(-c2nn(Cc3ccccc3F)c3c2CCCC3)nc1N [Compound I-23] | C (C represents an increase ranging from 10 fold to less than 20 fold) | C (C represents an increase ranging from 10 fold to less than 20 fold)
COc1ccccc1C(=O)N1CCc2c(c(-c3ncccn3)nn2Cc2ccccc2F)C1 [Compound I-57] | B (B represents an increase ranging from 5 fold to less than 10 fold) | C (C represents an increase ranging from 10 fold to less than 20 fold)
COc1cccc(C(=O)N2CCc3c(c(-c4ncccn4)nn3Cc3ccccc3F)C2)c1 [Compound I-58] | A (A represents no increase or an increase ranging from more than 0 fold to less than 5 fold) | –
Nc1ccnc(-c2nn(Cc3ccccc3F)c3c2C2CCC3C2)n1 (stereo not shown) [Compound I-31] | A (A represents no increase or an increase ranging from more than 0 fold to less than 5 fold) | A (A represents no increase or an increase ranging from more than 0 fold to less than 5 fold)
CC1(C)C=Cc2c(-c3ncccn3)nn(Cc3ccccc3F)c2C1 [Compound I-33] | A (A represents no increase or an increase ranging from more than 0 fold to less than 5 fold) | A (A represents no increase or an increase ranging from more than 0 fold to less than 5 fold)
